Assay results taken from a melting point compilation (Tetko et al.).

| Structure (SMILES) | melting point [°C] |
| --- | --- |
| NNC(=O)c1cc(Br)ccc1O | 222 to 224 |
| Cn1cc2c(cc1=O)CCN2 | 204 to 206 |
| CN(C)C=Nc1[nH]ncc1C#N | 159 to 161 |
| NC(C(=O)O)c1cc(F)ccc1F (stereo unspecified) | 229 to 231 |
| C#CCNC(=O)Nc1ccc(C(C)=O)cc1 | 169 to 171 |
| Cc1ccc(C(=O)O)c(Cl)c1C | 153 to 155 |
| NS(=O)(=O)c1c(F)cccc1[N+](=O)[O-] | 163 to 165 |
| N#Cc1ccc(-c2nnco2)cc1 | 142 to 144 |
| Cc1cccc(Nc2nnc(S)s2)c1C | 195 to 197 |
| O=C(O)CCC(=O)N1CCN(c2ncccn2)CC1 | 166 to 168 |
| Nc1nc(-c2ccc(Cl)s2)ns1 | 151 to 153 |
| COc1ccccc1C1(C)NC(=O)N(CC(=O)O)C1=O (stereo unspecified) | 179 to 181 |
| CC1(c2ccc(Br)cc2)CC(=O)OC1=O (stereo unspecified) | 69 to 71 |
| O=C(O)Cc1c(F)cncc1Cl | 99 to 101 |
| NC(CC(=O)O)c1cnn(-c2ccccc2)c1 (stereo unspecified) | 219 to 221 |
| Cc1ccc(Br)cc1S(N)(=O)=O | 139 to 141 |
| Cc1nc(NC(=O)CCl)sc1C | 144 to 146 |
| CSc1ccc(S(=O)(=O)Cl)cc1 | 46 to 48 |
| Cc1cc(C)cc(OCCC(=O)O)c1 | 88 to 90 |
| NC(=O)c1nc(Cl)ccc1N | 164 to 166 |
| O=Cc1ccc(Cl)nc1 | 75 to 77 |
| O=C(Nc1cccc(O)c1)c1ccccc1 | 171 to 173 |
| O=C(O)c1ccc2c(c1)C(=O)N(C1CCS(=O)(=O)C1)C2=O (stereo unspecified) | 239 to 241 |
| CN(C)c1ccc(/C=C/C(=O)c2ccc([N+](=O)[O-])cc2)cc1 | 213 to 215 |

| Structure (SMILES) | melting point [°C] |
| --- | --- |
| O=C(O)Cc1csc(-c2ccc(F)c(F)c2)n1 | 202 to 204 |
| COc1ccc(S(=O)(=O)N2CCCCC2)cc1N | 137 to 139 |
| NC(=S)NCC(F)(F)F | 154 to 156 |
| CC[C@@H](CO)NCc1ccccc1 | 73 to 75 |
| Cc1nn(CC(=O)OC(C)C)c(C)c1C=O | 104 to 106 |
| Nc1ncc(C(F)(F)F)cc1Cl | 86 to 90 |
| Cc1nc(-c2ccc(Br)cc2Cl)n[nH]1 | 179 to 181 |
| CC1CCCC(C)N1C(=O)c1cc(Cl)ccc1N (stereo unspecified) | 169 to 171 |
| O=C1CCC(C(=O)O)CN1 (stereo unspecified) | 174 to 176 |
| Nc1nc(-c2nc3ccccc3s2)cs1 | 248 to 250 |
| CC(=O)N(c1ccc(Cl)cc1)c1nc(C=O)cs1 | 210 to 212 |
| Cc1nnc(S)n1CCS(C)(=O)=O | 193 to 195 |
| Brc1ccc(OCCc2ccccc2)cc1 | 49 to 51 |
| Nc1ncccc1-c1ccccc1 | 103 to 105 |
| Brc1ncn2ccccc12 | 77 to 79 |
| O=C(O)c1ccc(NC(=O)c2cccc(Br)c2)cc1 | 271 to 273 |
| O=C(O)CCOc1ccc([N+](=O)[O-])cc1 | 116 to 118 |
| CCC(C)C(NC(N)=O)C(=O)O (stereo unspecified) | 205 to 207 |
| CN(C)S(=O)(=O)c1ccc2nc(Cl)c(Cl)nc2c1 | 139 to 141 |
| COc1ccc(NS(=O)(=O)c2ccc(N3CCCCC3)c(N)c2)cc1 | 111 to 113 |
| COc1cc(NS(=O)(=O)c2ccc(N)cc2)cc(OC)c1 | 153 to 155 |
| O=C1CNc2ccc(Br)cc2N1 | 169 to 171 |
| C=C(C)CNC(=S)NN | 86 to 88 |
| CC1(C2CCCCC2)NC(=O)NC1=O (stereo unspecified) | 113 to 115 |

| Structure (SMILES) | melting point [°C] |
| --- | --- |
| CCc1ccccc1Nc1nnc(S)s1 | 159 to 161 |
| CCc1c(C(=O)O)[nH]c(C)c1C(C)=O | 202 to 204 |
| N#CC1(C(=O)O)CCC1 | 64 to 66 |
| Oc1ncnc2c(F)cc(Br)cc12 | 299 to 301 |
| CS(=O)(=O)c1ccc(C#N)cc1F | 146 to 148 |
| N#CCCn1cc(C(=O)O)c(-c2cccc(Br)c2)n1 | 154 to 156 |
| CC(Cl)C(=O)Nc1c(Cl)cc(Cl)cc1Cl (stereo unspecified) | 153 to 155 |
| Nc1ccc(N2CCOC2=O)cc1 | 149 to 151 |
| O=C(O)CNS(=O)(=O)Cc1ccccc1 | 153 to 155 |
| O=C1CCC2(CC1)C(=O)Nc1ccccc12 | 198 to 200 |
| CCOC(=O)c1ccc2nc(CCC(=O)O)c(=O)n(CC)c2c1 | 181 to 185 |
| Cc1nc2cc(N)ccc2n1C | 164 to 166 |
| OCC#Cc1ccc(Oc2ccccc2)cc1 | 42 to 44 |
| CC(C)(C)Cc1cc(N)n(-c2ccccc2)n1 | 95 to 97 |
| COCCn1c(C)c(C)c2cc(C(=O)O)ccc21 | 219 to 221 |
| Cc1cccc(-c2nnc(CO)o2)c1 | 82 to 84 |
| CN(CC12CC3CC(CC(C3)C1)C2)C(=O)CCl | 52 to 54 |
| Nc1ccccc1C(=O)NC1CCCC1 | 174 to 176 |
| Cc1cc(Cl)nc(-c2ccc([N+](=O)[O-])cc2)n1 | 184 to 186 |
| O=C(O)c1nn(-c2cccc(Br)c2)c2c1CCCC2 | 193 to 195 |
| O=C(O)C(=O)NNc1ccc(Cl)cc1Cl | 169 to 171 |
| O=C1CCCC1Cc1ccccc1[N+](=O)[O-] (stereo unspecified) | 38 to 40 |
| CC(C)n1ncc2cc(N)cnc21 | 85 to 87 |
